Experiments:
Type in all cases: in vivo
[1] = test system: upland rice (Oryza sp., var. Tebonnet, RICE); experiment: Pre-emerge test, crop safety; conditions: crop damage, pre-emerge, phytotoxicity rating 0-100 at 14 days after application
How it was run: (§1)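 Sandy loam pots; pre-emerge: sown 1 d pre-spray, surface-watered after, then bottom-watered. Post-emerge: sown 8–21 d before, 2–3 leaf stage, + 0.25% v/v NIS, bottom-watered. Acetone, 187 l/ha track spray, 15–1000 g ai/ha. 0–100 injury score, day 14.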

[2] = test system: field corn (Zea mays L., var. Dekalb 535, CORN); experiment: Pre-emerge test, crop safety; conditions: crop damage, pre-emerge, phytotoxicity rating 0-100 at 14 days after application
How it was run: as §1

[3] = test system: upland rice (Oryza sp., var. Tebonnet, RICE); experiment: Post-emerge test, crop safety; conditions: post-emerge, crop damage rating 0-100 at 14 days after application
How it was run: as §1

[4] = test system: field corn (Zea mays L., var. Dekalb 535, CORN); experiment: Post-emerge test, crop safety; conditions: post-emerge, crop damage rating 0-100 at 14 days after application
How it was run: as §1

[5] = test system: sicklepod (Cassia obtusifolia, CASOB); experiment: Post-emerge test, greenhouse herbicide activity screening; conditions: post-emerge, phytotoxicity rating 0-100 at 14 days after application
Text: (§2) A standard greenhouse herbicide activity screening system was used to evaluate the herbicidal efficacy and crop safety of these test compounds. Seven broadleaf weed species including redroot pigweed (Amaranthus retroflexus, AMARE, velvetleaf (Abutilon theophrasti, ABUTH), sicklepod (Cassia obtusifolia, CASOB), ivyleaf morningglory (Ipomoea hederacea, IPOHE), lambsquarters (Chenopodium album, CHEAL), common ragweed (Ambrosia artemisizfolia L., AMBEL), and cocklebur (Xanthium strumarium, XANST) were used as test species. Four grass weed species including green foxtail (Setaria viridis, SETVI), barnyardgrass (Echinochloa crus-galli, ECHCG), johnsongrass (Sorghum halepense, SORHA), and large crabgrass (Digitaria sanguinalis, DIGSA) were also used. In addition, three crop species, field corn (Zea mays L., var. Dekalb 535, CORN), soybean (Glycine max L., var. Pella 86, SOY), and is upland rice (Oryza sp., var. Tebonnet, RICE) were included.
(§3) All plants were grown in 10 cm square plastic pots which were filled with a sandy loam soil mix. For pre-emerge tests, seeds were planted one day prior to application of the test compounds. For post-emerge tests, seeds were planted 8-21 days prior to the test to allow emergence and good foliage development prior to application of the test substances. At the time of the post-emerge application, plants of all species were usually at the 2-3 leaf stage of development.
(§4) All test compounds Were dissolved in acetone and applied to the test units in a volume of 187 l /ha. Test materials were applied at rates ranging from 15 g ai/ha to 1000 g ai/ha using a track sprayer equipped with a TJ8001E even flow flat fan spray nozzle. Plants were arranged on a shelf so that the top of the canopy (post-emerge) or top of the soil surface (pre-emerge) was 40-45 cm below the nozzle. Pressurized air was used to force the test solution through the nozzle as it was mechanically advanced (via electrically driven chain drive) over the top of all test plants/pots. This application simulates a typical commercial field herbicide application.
(§5) In the post-emerge test, a commercial non-ionic surfactant was also included (0.25% v/v) to enhance wetting of the leaf surfaces of target plants. Immediately after application, test units of the pre-emerge applications were watered at the soil surface to incorporate the test materials. Subsequently, these test units were bottom-watered. Post-emerge test units were always bottom-watered.
(§6) At 14 days after application of the test materials, phytotoxicity ratings were recorded. A rating scale of 0-100 was used as previously described in Research Methods in Weed Science, 2nd edition, B. Truelove, Ed., Southern Weed Science Society, Auburn University, Auburn, Ala. 1977. Briefly, “0” corresponds to no damage and “100” corresponds to complete death of all plants in the test unit. This scale was used both to determine efficacy against weed species and damage to crop species. Herbicide activity data for various compounds of this invention, which are shown by compound No. in Tables 1-8, are shown in Tables 11 and 12.

[6] = test system: large crabgrass (Digitaria sanguinalis, DIGSA); experiment: as above; conditions: post-emerge, phytotoxicity rating 0-100 at 14 days after application
Text: as §2, §3, §4, §5, §6

[7] = test system: barnyardgrass (Echinochloa crus-galli, ECHCG); experiment: as above; conditions: post-emerge, phytotoxicity rating 0-100 at 14 days after application
Text: as §2, §3, §4, §5, §6

[8] = test system: velvetleaf (Abutilon theophrasti, ABUTH); experiment: as above; conditions: post-emerge, phytotoxicity rating 0-100 at 14 days after application
Text: as §2, §3, §4, §5, §6

[9] = test system: lambsquarters (Chenopodium album, CHEAL); experiment: as above; conditions: post-emerge, phytotoxicity rating 0-100 at 14 days after application
Text: as §2, §3, §4, §5, §6

[10] = test system: green foxtail (Setaria viridis, SETVI); experiment: as above; conditions: post-emerge, phytotoxicity rating 0-100 at 14 days after application
Text: as §2, §3, §4, §5, §6

[11] = test system: redroot pigweed (Amaranthus retroflexus, AMARE); experiment: as above; conditions: post-emerge, phytotoxicity rating 0-100 at 14 days after application
Text: as §2, §3, §4, §5, §6

[12] = test system: ivyleaf morningglory (Ipomoea hederacea, IPOHE); experiment: as above; conditions: post-emerge, phytotoxicity rating 0-100 at 14 days after application
Text: as §2, §3, §4, §5, §6

[13] = test system: sicklepod (Cassia obtusifolia, CASOB); experiment: Pre-emerge test, greenhouse herbicide activity screening; conditions: pre-emerge, phytotoxicity rating 0-100 at 14 days after application
Text: as §2, §3, §4, §5, §6

[14] = test system: large crabgrass (Digitaria sanguinalis, DIGSA); experiment: as above; conditions: pre-emerge, phytotoxicity rating 0-100 at 14 days after application
Text: as §2, §3, §4, §5, §6

[15] = test system: barnyardgrass (Echinochloa crus-galli, ECHCG); experiment: as above; conditions: pre-emerge, phytotoxicity rating 0-100 at 14 days after application
Text: as §2, §3, §4, §5, §6

[16] = test system: velvetleaf (Abutilon theophrasti, ABUTH); experiment: as above; conditions: pre-emerge, phytotoxicity rating 0-100 at 14 days after application
Text: as §2, §3, §4, §5, §6

[17] = test system: lambsquarters (Chenopodium album, CHEAL); experiment: as above; conditions: pre-emerge, phytotoxicity rating 0-100 at 14 days after application
Text: as §2, §3, §4, §5, §6

[18] = test system: green foxtail (Setaria viridis, SETVI); experiment: as above; conditions: pre-emerge, phytotoxicity rating 0-100 at 14 days after application
Text: as §2, §3, §4, §5, §6

[19] = test system: ivyleaf morningglory (Ipomoea hederacea, IPOHE); experiment: as above; conditions: pre-emerge, phytotoxicity rating 0-100 at 14 days after application
Text: as §2, §3, §4, §5, §6

[20] = test system: redroot pigweed (Amaranthus retroflexus, AMARE); experiment: as above; conditions: pre-emerge, phytotoxicity rating 0-100 at 14 days after application
How it was run: as §1

| SMILES | Pre-emerge Herbicidal Activity RICE ([1]; rate 63 g ai/ha) | Pre-emerge Herbicidal Activity RICE ([1]; rate 250 g ai/ha) | Pre-emerge Herbicidal Activity CORN ([2]; rate 63 g ai/ha) | Pre-emerge Herbicidal Activity CORN ([2]; rate 250 g ai/ha) | Post-emerge Herbicidal Activity RICE ([3]; 63 g ai/ha) | Post-emerge Herbicidal Activity RICE ([3]; 250 g ai/ha) | Post-emerge Herbicidal Activity CORN ([4]; 63 g ai/ha) | Post-emerge Herbicidal Activity CORN ([4]; 250 g ai/ha) | Post-emerge Herbicidal Activity CASOB ([5]; 63 g ai/ha) | Post-emerge Herbicidal Activity CASOB ([5]; 250 g ai/ha) | Post-emerge Herbicidal Activity DIGSA ([6]; 63 g ai/ha) | Post-emerge Herbicidal Activity DIGSA ([6]; 250 g ai/ha) | Post-emerge Herbicidal Activity ECHCG ([7]; 63 g ai/ha) | Post-emerge Herbicidal Activity ECHCG ([7]; 250 g ai/ha) | Post-emerge Herbicidal Activity ABUTH ([8]; 63 g ai/ha) | Post-emerge Herbicidal Activity ABUTH ([8]; 250 g ai/ha) | Post-emerge Herbicidal Activity CHEAL ([9]; 63 g ai/ha) | Post-emerge Herbicidal Activity CHEAL ([9]; 250 g ai/ha) | Post-emerge Herbicidal Activity SETVI ([10]; 63 g ai/ha) | Post-emerge Herbicidal Activity SETVI ([10]; 250 g ai/ha) | other results |
| --- | --- | --- | --- | --- | --- | --- | --- | --- | --- | --- | --- | --- | --- | --- | --- | --- | --- | --- | --- | --- | --- |
| Cc1cc(C)c(COC(=O)Nc2c(C)c(Cl)cc(F)c2-n2c(=O)cc(C(F)(F)F)n(C)c2=O)c(C)c1 [4-69] | 10 | 30 | 0 | 0 | 0 | 40 | 5 | 35 | 40 | 70 | 20 | 50 | 20 | 40 | 100 | 100 | 90 | 100 | 40 | 80 | Post-emerge Herbicidal Activity AMARE ([11]; 63 g ai/ha): 100; Post-emerge Herbicidal Activity AMARE ([11]; 250 g ai/ha): 100; Post-emerge Herbicidal Activity IPOHE ([12]; 63 g ai/ha): 70; Post-emerge Herbicidal Activity IPOHE ([12]; 250 g ai/ha): 100; Pre-emerge Herbicidal Activity CASOB ([13]; rate 63 g ai/ha): 0; Pre-emerge Herbicidal Activity CASOB ([13]; rate 250 g ai/ha): 50; Pre-emerge Herbicidal Activity DIGSA ([14]; rate 63 g ai/ha): 100; Pre-emerge Herbicidal Activity DIGSA ([14]; rate 250 g ai/ha): 100; Pre-emerge Herbicidal Activity ECHCG ([15]; rate 63 g ai/ha): 30; Pre-emerge Herbicidal Activity ECHCG ([15]; rate 250 g ai/ha): 70; Pre-emerge Herbicidal Activity ABUTH ([16]; rate 63 g ai/ha): 80; Pre-emerge Herbicidal Activity ABUTH ([16]; rate 250 g ai/ha): 90; Pre-emerge Herbicidal Activity CHEAL ([17]; rate 63 g ai/ha): 70; Pre-emerge Herbicidal Activity CHEAL ([17]; rate 250 g ai/ha): 90; Pre-emerge Herbicidal Activity SETVI ([18]; rate 63 g ai/ha): 95; Pre-emerge Herbicidal Activity SETVI ([18]; rate 250 g ai/ha): 100; Pre-emerge Herbicidal Activity IPOHE ([19]; rate 63 g ai/ha): 0; Pre-emerge Herbicidal Activity IPOHE ([19]; rate 250 g ai/ha): 40; Pre-emerge Herbicidal Activity AMARE ([20]; rate 63 g ai/ha): 30; Pre-emerge Herbicidal Activity AMARE ([20]; rate 250 g ai/ha): 80 |
| Cc1cccc(COC(=O)Nc2c(C)c(Cl)cc(F)c2-n2c(=O)cc(C(F)(F)F)n(C)c2=O)c1 [4-68] | 50 | 90 | 45 | 80 | 60 | 80 | 95 | 100 | 100 | 100 | 75 | 90 | 90 | 98 | 100 | 100 | 100 | 100 | 100 | 100 | Post-emerge Herbicidal Activity AMARE ([11]; 63 g ai/ha): 100; Post-emerge Herbicidal Activity AMARE ([11]; 250 g ai/ha): 100; Post-emerge Herbicidal Activity IPOHE ([12]; 63 g ai/ha): 100; Post-emerge Herbicidal Activity IPOHE ([12]; 250 g ai/ha): 100; Pre-emerge Herbicidal Activity CASOB ([13]; rate 63 g ai/ha): 40; Pre-emerge Herbicidal Activity CASOB ([13]; rate 250 g ai/ha): 100; Pre-emerge Herbicidal Activity DIGSA ([14]; rate 63 g ai/ha): 100; Pre-emerge Herbicidal Activity DIGSA ([14]; rate 250 g ai/ha): 100; Pre-emerge Herbicidal Activity ECHCG ([15]; rate 63 g ai/ha): 60; Pre-emerge Herbicidal Activity ECHCG ([15]; rate 250 g ai/ha): 98; Pre-emerge Herbicidal Activity ABUTH ([16]; rate 63 g ai/ha): 100; Pre-emerge Herbicidal Activity ABUTH ([16]; rate 250 g ai/ha): 100; Pre-emerge Herbicidal Activity CHEAL ([17]; rate 63 g ai/ha): 100; Pre-emerge Herbicidal Activity CHEAL ([17]; rate 250 g ai/ha): 100; Pre-emerge Herbicidal Activity SETVI ([18]; rate 63 g ai/ha): 100; Pre-emerge Herbicidal Activity SETVI ([18]; rate 250 g ai/ha): 100; Pre-emerge Herbicidal Activity IPOHE ([19]; rate 63 g ai/ha): 40; Pre-emerge Herbicidal Activity IPOHE ([19]; rate 250 g ai/ha): 100; Pre-emerge Herbicidal Activity AMARE ([20]; rate 63 g ai/ha): 100; Pre-emerge Herbicidal Activity AMARE ([20]; rate 250 g ai/ha): 100 |

From patent publication US6355799B1, “Substituted benzene compounds, process for their preparation, and herbicidal and defoliant compositions containing them” (ISK Americas Incorporated, priority 1997, dated 2002)
